# Assay results taken from US20260262641A1 (priority 2023, published 2026).
# How the values were obtained:
# [1] = tested on: redlegged earth mite (H. destructor; RLEM); assay: whole plant or invertebrate; conditions: for LC50: read-out: LC50 (95% CI)
# Description: On the 14th of May 2022, H. destructor were collected from capeweed (Arctotheca calendula) in South Morang, Victoria (−37.625, 145.110), a site with no known history of insecticide application. Mites were collected via suction using a Stihl SH55 blower vacuum, placed in plastic containers with paper towel and vegetation, and transported back to the laboratory, where they were stored at 4° C. until testing.
# Serial dilutions were prepared for each insecticide (Table 1), with the addition of a non-ionic surfactant (Tween 20) at 0.01% to aid the spread of the insecticide and ensure even coating. […] Nine concentrations of pyridaben ranging from the proposed field rate of 1480 mL diluted in 100 L of water (1998 mg a.i./L) to 1×10^−5 were serially diluted and tested along with a water control. Eight concentrations of omethoate, ranging from 10 times the field rate of 100 mL diluted in 100 L of water (290 mg a.i./L) to 1×10^−5, were tested along with a water control. Seven concentrations of bifenthrin, ranging from 10 times the field rate of 40 mL diluted in 100 L of water (100 mg a.i./L) to 1×10^−5, were tested along with a water control. For each insecticide concentration tested, approximately 10 mL of solution was poured into a 15 mL plastic vial and swirled to ensure a complete coating, with excess liquid removed. Six vials were coated per concentration and were left to dry overnight. Control vials were treated in the same way, except water (with the addition of 0.01% Tween) was used.
# Approximately eight individual H. destructor were then placed into each vial along with 2-3 leaves of common vetch (Vicia sativa), which provided food and humidity. Vials were then sealed with a screw lid and placed in a controlled temperature cabinet at 18° C. After 24-hours exposure, mites were scored as alive (moving freely), incapacitated (inhibited movement), or dead (no movement over a 5 second period).
# Dose-response curves were generated by plotting percentage mortality against log concentration. […] Logistic regression is well suited for the analysis of binary response data (e.g., dead/alive). All analyses were conducted using R version 3.3.1 (R Development Core Team 2022).
# [2] = tested on: insecticide-susceptible population of redlegged earth mite (H. destructor; RLEM); assay: whole plant or invertebrate; conditions: Halotydeus destructor, 24 h; for LC50: read-out: LC50 (95% CI)
# Description: (§1) The insecticide-susceptible H. destructor population tested in this bioassay was collected from burr medic (Medicago polymorpha) and barley grass (Hordeum leporinum) in Moulamein, NSW (−35.102, 144.026), a site with no known history of insecticide application. […] Mites were collected via suction using a Stihl SH55 blower vacuum, placed in plastic containers with paper towel and vegetation, and transported back to the laboratory, where they were stored at 4° C. until testing.
# (§2) Serial dilutions were prepared for each insecticide (Table 9), with the addition of a non-ionic surfactant (Tween 20) at 0.01% to aid the spread of the insecticide and ensure even coating. […] Nine concentrations of bifenthrin were tested, ranging from 1×10^−5 to 10 times the field rate of 40 mL diluted in 100 L of water (100 mg a.i./L). Seven concentrations of omethoate were tested, ranging from 1×10^−5 to 10 times the field rate of 100 mL in 100 L of water (290 mg a.i./L).
# (§3) Six vials were coated per concentration and were left to dry overnight. Control vials were treated in the same way, except water (with the addition of 0.01% Tween) was used. The next day, eight individual H. destructor were then placed into each vial along with 2-3 leaves of common vetch (Vicia sativa), which provided food and humidity. Vials were then sealed with a screw lid and placed in a controlled temperature cabinet at 18° C. After 24-hours exposure, mites were scored as alive (moving freely), incapacitated (inhibited movement), or dead (no movement over a 5 second period).
# (§4) Dose-response curves were generated by plotting percentage mortality against log concentration. A series of logistic models were used to quantify the sensitivity of H. destructor to each chemical and to test whether any differences in sensitivity were present between the two populations. Logistic regression is well suited for the analysis of binary response data (e.g., dead/alive). Each model included chemical concentration and H. destructor population as fixed-effect predictors, which allowed testing for whether populations had average differences in mortality (i.e., model intercept) via F tests. It was then determined if populations had differences in mortality that were dependent on chemical concentration (i.e., differences in regression slopes) by comparing the inclusion of a population×concentration predictor (i.e., allowing slopes to vary between populations). […] The resulting LC50 values were used to quantify the level of insecticide resistance (resistance ratios) relative to the known insecticide-susceptible population. All analyses were conducted using R version 4.3.1 (R Development Core Team 2023).
# [3] = tested on: insecticide-resistant population of redlegged earth mite (H. destructor; RLEM); assay: whole plant or invertebrate; conditions: for LC50: read-out: LC50 (95% CI); for difference between insecticide-susceptible and resistant populations in response (in words): P < 0.05 level
# Description: as §1, §2, §3, §4
# [4] = tested on: redlegged earth mite (H. destructor; RLEM); assay: Field trial in canola, pre- or post-emergent control of RLEM (Example 5); type: in vivo, Halotydeus destructor; conditions: application timing B (early post-emergent, 1 to 2 leaf canola)
# Description: A field trial was conducted in canola cv. Garrison, to evaluate fenpyroximate for control of redlegged earth mite (H. destructor; RLEM) as a pre- or post-emergent application. The trial was located at Beverley, Western Australia (−32.2248085, 117.0268493). The canola was sown on 13th June 2023. […] All treatments were applied using a hand boom fitted with flat fan nozzles in a spray volume of 100 L/ha.
# The density of RLEM was assessed 33 days after the second application timing by counting the number of mites per plant.
# (§5) All data was statistically analyzed using analysis of variance and Fisher's protected least significant different test (Fishers LSD). The level of significance for all tests was P<0.05.
# [5] = tested on: couch mite (Aceria cynodoniensis); assay: Field trial in Santa Ana couch turfgrass, control of couch mite (Example 3); type: in vivo; conditions: for Biomass and vigor (0-10), 42 DAA2 / Biomass and vigor (0-10), Pre-spray: 0 to 10 rating scale; for Biomass and vigor (0-10), 42 DAA2 / NDVI, 42 DAA2 / % Incidence mite damage, 42 DAA2: product rate mL/ha: Prophesy 500, Thumper 2000 (+ BS 1000 0.25% v/v); for Biomass and vigor (0-10), 42 DAA2 / NDVI, 42 DAA2: Fenpyroximate 50 SC 4000; for NDVI, 42 DAA2 / NDVI, Pre-spray: Greenseeker; for % Incidence mite damage, 42 DAA2: 42 days after second application, Fenpyroximate 50 SC 4000 (200 g ai/ha); for Biomass and vigor (0-10), Pre-spray / NDVI, Pre-spray / % Incidence mite damage, Pre-spray: Pre-spray (baseline); for % Incidence mite damage, Pre-spray: witches' broom
# Description: A field trial was conducted in Santa Ana couch turfgrass, to evaluate fenpyroximate for control of couch mite (Aceria cynodoniensis). The trial was located at Terrey Hills Golf and Country Club, New South Wales (−33.668, 151.217). […] All treatments were applied using a hand boom fitted with XR11004 nozzles and in a spray volume of 430 L/ha.
# The incidence of couch mite damage, to the terminal growth point (known as witches' broom) was assessed 42 days after the second application. Turf biomass and vigor were assessed at the same timing on a 0 to 10 rating scale, along with NDVI using a Greenseeker.
# as §5
# [6] = Halotydeus destructor, 24 h, read-out: % RLEM mortality
# [7] = read-out: % RLEM mortality, Susceptible
# [8] = Halotydeus destructor, 24 h, read-out: % RLEM mortality, Resistant
molecule,measurement,setting,value
Cc1c(COC(=O)[C@@H]2[C@H](/C=C(\Cl)C(F)(F)F)C2(C)C)cccc1-c1ccccc1 (racemic) [Bifenthrin],mortality at 0.001 µg/mL,[1]; [6],0%
same,mortality at 0.01 µg/mL,[1]; [6],0%
same,mortality at 0.1 µg/mL,[1]; [6],64.9%
same,mortality at 0.3 µg/mL,[1]; [6],98.7%
same,mortality at 1 µg/mL,[1]; [6],100%
same,mortality at 10 µg/mL,[1]; [6],100%
same,mortality at 100 µg/mL,[1]; [6],100%
same,LC50,"[1]; Halotydeus destructor, 24 h",0.085 µg/mL
same,mortality at 0.001 µg/mL,[2]; [7],7%
same,mortality at 0.01 µg/mL,[2]; [7],4.7%
same,mortality at 0.03 µg/mL,[2]; [7],17.4%
same,mortality at 0.1 µg/mL,[2]; [7],74.3%
same,mortality at 0.3 µg/mL,[2]; [7],98.1%
same,mortality at 1 µg/mL,[2]; [7],100%
same,mortality at 10 µg/mL,[2]; [7],100%
same,mortality at 100 µg/mL,[2]; [7],100%
same,mortality at 1000 µg/mL,[2]; [7],100%
same,LC50,[2],0.053 µg/mL
same,Resistance ratio,[3],265.09
same,mortality at 0.001 µg/mL,[3]; [8],4.4%
same,mortality at 0.01 µg/mL,[3]; [8],9.3%
same,mortality at 0.03 µg/mL,[3]; [8],5.8%
same,mortality at 0.1 µg/mL,[3]; [8],22.3%
same,mortality at 0.3 µg/mL,[3]; [8],44.6%
same,mortality at 1 µg/mL,[3]; [8],48.9%
same,mortality at 10 µg/mL,[3]; [8],70.9%
same,mortality at 100 µg/mL,[3]; [8],59%
same,mortality at 1000 µg/mL,[3]; [8],53.5%
same,LC50,"[3]; Halotydeus destructor, 24 h",14.1 µg/mL
same,difference between insecticide-susceptible and resistant populations in response (in words),[3],significant difference
CC(C)c1cc(Oc2ccccc2)cc(C(C)C)c1NC(=S)NC(C)(C)C [Diafenthiuron],mortality at 0.03 µg/mL,[2]; [7],13.9%
same,mortality at 0.3 µg/mL,[2]; [7],15.6%
same,mortality at 3 µg/mL,[2]; [7],13%
same,mortality at 30 µg/mL,[2]; [7],21.5%
same,mortality at 300 µg/mL,[2]; [7],64.1%
same,mortality at 3000 µg/mL,[2]; [7],100%
same,mortality at 30000 µg/mL,[2]; [7],100%
same,mortality at 90000 µg/mL,[2]; [7],100%
same,mortality at 0.03 µg/mL,[3]; [8],3.9%
same,mortality at 0.3 µg/mL,[3]; [8],10.6%
same,mortality at 3 µg/mL,[3]; [8],13.2%
same,mortality at 30 µg/mL,[3]; [8],15.7%
same,mortality at 300 µg/mL,[3]; [8],39.5%
same,mortality at 3000 µg/mL,[3]; [8],75.5%
same,mortality at 30000 µg/mL,[3]; [8],100%
same,mortality at 90000 µg/mL,[3]; [8],100%
same,difference between insecticide-susceptible and resistant populations in response (in words),[3],significant population differences
same,% Control (33 DAA2),[4]; product rate 400 mL/ha,54%
CNC(=O)CSP(=O)(OC)OC [Omethoate],mortality at 0.003 µg/mL,[1]; [6],0%
same,mortality at 0.03 µg/mL,[1]; [6],2.8%
same,mortality at 0.3 µg/mL,[1]; [6],11.7%
same,mortality at 0.9 µg/mL,[1]; [6],55.3%
same,mortality at 2.9 µg/mL,[1]; [6],98.1%
same,mortality at 29 µg/mL,[1]; [6],100%
same,mortality at 290 µg/mL,[1]; [6],100%
same,mortality at 2900 µg/mL,[1]; [6],100%
same,LC50,"[1]; Halotydeus destructor, 24 h",0.681 µg/mL
same,mortality at 0.0029 µg/mL,[2]; [7],7.6%
same,mortality at 0.029 µg/mL,[2]; [7],10.1%
same,mortality at 0.29 µg/mL,[2]; [7],32.1%
same,mortality at 2.9 µg/mL,[2]; [7],95.8%
same,mortality at 29 µg/mL,[2]; [7],100%
same,mortality at 290 µg/mL,[2]; [7],100%
same,mortality at 2900 µg/mL,[2]; [7],100%
same,LC50,[2],0.348 µg/mL
same,mortality at 0.0029 µg/mL,[3]; [8],16.1%
same,mortality at 0.029 µg/mL,[3]; [8],18.9%
same,mortality at 0.29 µg/mL,[3]; [8],17.2%
same,mortality at 2.9 µg/mL,[3]; [8],47.5%
same,mortality at 29 µg/mL,[3]; [8],100%
same,mortality at 290 µg/mL,[3]; [8],100%
same,mortality at 2900 µg/mL,[3]; [8],100%
same,LC50,"[3]; Halotydeus destructor, 24 h",0.935 µg/mL
same,difference between insecticide-susceptible and resistant populations in response (in words),[3],no statistically significant difference
same,% Control (33 DAA2),[4]; product rate 100 mL/ha,74%
"Clc1ccccc1-c1nnc(-c2ccccc2Cl)nn1 [Prophesy, Clofentezine]","Biomass and vigor (0-10), 42 DAA2",[5],4.9
same,"NDVI, 42 DAA2",[5],0.64
same,"% Incidence mite damage, 42 DAA2",[5],52.0%
same,"Biomass and vigor (0-10), Pre-spray",[5],4.0 a
same,"NDVI, Pre-spray",[5],0.53 a
same,"% Incidence mite damage, Pre-spray",[5],94.0 a %
same,turf biomass and vigor and NDVI (in words),"[5]; versus untreated, P<0.05",also improved
CC(C)(C)c1ccc(CSc2cnn(C(C)(C)C)c(=O)c2Cl)cc1 [Pyridaben],mortality even at the highest rates,"[1]; 24 hours exposure, highest rates tested",less than 50%
same,mortality at 0.02 µg/mL,[1]; [6],0%
same,mortality at 0.2 µg/mL,[1]; [6],0%
same,mortality at 2 µg/mL,[1]; [6],0%
same,mortality at 20 µg/mL,[1]; [6],0%
same,mortality at 60 µg/mL,[1]; [6],0%
same,mortality at 200 µg/mL,[1]; [6],9%
same,mortality at 599 µg/mL,[1]; [6],23.4%
same,mortality at 999 µg/mL,[1]; [6],45.5%
same,mortality at 1998 µg/mL,[1]; [6],27.5%
same,efficacy against RLEM (in words),"[1]; laboratory bioassay, 24 hours exposure",not efficacious
same,highest mortality observed,[1]; range of concentrations tested 0.01998-1998 mg a.i./L,45%
Abamectin [Thumper],"Biomass and vigor (0-10), 42 DAA2",[5],4.4
same,"NDVI, 42 DAA2",[5],0.58
same,"% Incidence mite damage, 42 DAA2",[5],57.0%
same,"Biomass and vigor (0-10), Pre-spray",[5],3.9 a
same,"NDVI, Pre-spray",[5],0.52 a
same,"% Incidence mite damage, Pre-spray",[5],95.3 a %
